Reference: patent EP0006061A1, “Medicinal compound consisting of a derivative of cyclopentyl aldehyde” (INSTITUT DE RECHERCHES CHIMIQUES ET BIOLOGIQUES APPLIQUEES …, priority 1978, dated 1979)
≈ marks a conversion by molar mass, not a printed value. Read-outs that look alike come from different tables or passages of the source.

Key:
cobayes [1] = assay: histamine aerosol bronchospasm (time to apnoea); format: in vivo; settings: aerosol for 10 min before histamine aerosol, controls 108 ± 18
Description: Les essais pharmaceutiques qui ont été mis en oeuvre avec les produits des exemples 1 et 4, ont été résumés ci-après : • 1°/ essais avec l'exemple 1 • a/ activité bactériostatique L' α-(2-formyl-3-méthyl-cyclopentyl)-acétal- déhyde inhibe les bactéries Gram (+) et Gram (-). Les CMI (concentration minimale inhibitrice) sont les suivantes : 0,75 mg/ml sur Staphylococcus aureus Londres, 1,2 mg/ml sur Escherichia coli, et 1,5 mg/ml sur Proteus • b/ activité antispasmodique : Les DE-50 du produit de l'exemple 1 ont été déterminés • (i) in vitro sur iléon isolé de cobaye vis à vis de l'histamine : DE - 50 = 50 γ/ml; • (ii) in vivo sur l'animal vivant selon la méthode de KONZETT & ROESLLER : DE - 50 = 2,6 mg/kg par administration i.v. • c/ activité antianaphylactique : Des cobayes mâles sont sensibilisés par deux injections de 0,5 ml d'une solution d'albumine à 2 g/1, à deux jours d'intervalle. Quatre semaines aprës,le choc anaphylactique mortel est provoqué par injection i.v. de 0,2 ml d'une solution aqueuse d'ovalbumine à 2 g/1. Les produits à tester sont administrés 30 mn avant (administration i.p.) ou en même temps (administration i.v.) que l'injection provoquant ledit choc anaphylactique. Les résultats sont donnés dans le tableau I pour le produit de l'exemple 1 et la Prométhazine en tant que produit de référence : [formula] • 2°/ essais avec le produit de l'exemple 4 (constitué par un mélange de 87 % en poids d'isomère "cis-trans" et 13 % en poids d'isomère "trans-cis). • a/ activité bactériostatigue : Le produit de l'exemple 4 inhibe les bactéries Gram (+) et Gram (-). […]

[2] = system: Salmonella typhi murium (souche IP); assay: bacteriostatic activity (MIC); format: cell-based; settings: Salmonella enterica, read-out: CMI
Description: (§1) Les essais pharmaceutiques qui ont été mis en oeuvre avec les produits des exemples 1 et 4, ont été résumés ci-après : • 1°/ essais avec l'exemple 1 • a/ activité bactériostatique L' α-(2-formyl-3-méthyl-cyclopentyl)-acétal- déhyde inhibe les bactéries Gram (+) et Gram (-). Les CMI (concentration minimale inhibitrice) sont les suivantes : 0,75 mg/ml sur Staphylococcus aureus Londres, 1,2 mg/ml sur Escherichia coli, et 1,5 mg/ml sur Proteus • b/ activité antispasmodique : Les DE-50 du produit de l'exemple 1 ont été déterminés • (i) in vitro sur iléon isolé de cobaye vis à vis de l'histamine : DE - 50 = 50 γ/ml; • (ii) in vivo sur l'animal vivant selon la méthode de KONZETT & ROESLLER : DE - 50 = 2,6 mg/kg par administration i.v. • c/ activité antianaphylactique : Des cobayes mâles sont sensibilisés par deux injections de 0,5 ml d'une solution d'albumine à 2 g/1, à deux jours d'intervalle. Quatre semaines aprës,le choc anaphylactique mortel est provoqué par injection i.v. de 0,2 ml d'une solution aqueuse d'ovalbumine à 2 g/1. Les produits à tester sont administrés 30 mn avant (administration i.p.) ou en même temps (administration i.v.) que l'injection provoquant ledit choc anaphylactique. Les résultats sont donnés dans le tableau I pour le produit de l'exemple 1 et la Prométhazine en tant que produit de référence : [formula] • 2°/ essais avec le produit de l'exemple 4 (constitué par un mélange de 87 % en poids d'isomère "cis-trans" et 13 % en poids d'isomère "trans-cis). • a/ activité bactériostatigue : Le produit de l'exemple 4 inhibe les bactéries Gram (+) et Gram (-). Ses CMI sont les suivantes : • 1,5 mg/m sur Staphylococcus aureus, Londres • 1 mg/ml sur Escherichia coli (souche 548) • 1,75 mg/ml sur Proteus vulgaris (souche 1557) • 2,5 mg/ml sur Klebsiella pneumoniae (souche 433), • 1 mg/ml sur Salmonella typhi murium (souche IP), • 1,5 mg/ml sur Staphylococcus aureus (souche 634), • 1,25 mg/ml sur Streptococcus (souche 1178) • 1,25 mg/ml sur Bacillus substilis, (les souches 548, 1557, 433, 634, et 1178 étant celles du catalogue de la collection du "Centre International de Distribution de Souches et d'Information sur les Types Microbiens" de . Lausanne, et la souche "IP" provenant de l'Institut Pasteur de Paris. • b/ activité bactéricide Le produit de l'exemple 4 détruit les bactéries Gram (+) et Gram (-). Ses CMB (concentration minimalebactéricide) déterminées sur milieu solide (quand moins de 0,01% de germes survivent) sont : • 1,75 mg/ml sur Staphylococcus aureus Londres • 1,5 mg/ml sur Escherichia coli (souche 548) • 2 mg/ml sur Proteus vulgaris (souche 1557) • 3 mg/ml sur Klebsiella pneumoniae (souche 433), • 1,25 mg/ml sur Salmonella typhi murium (souche I.P.) • 1,75 mg/ml sur Staphylococcus aureus (souche 634) • 2 mg/ml sur Streptococcus (souche 1178) • 2,5 mg/ml sur Bacillus substilis. • c/ activité bronchospatique Des cobayes mâles ou femelles [20 animaux (pesant 300-500 g) par dose et par produit à tester] sont exposés à un aérosol de l'exemple 4 (50 g/l en solution eau-éthanol) ou de Prométhazine (produit de référence) pendant 10 mn.

[3] = system: Proteus vulgaris (souche 1557); assay: bacteriostatic activity (MIC); format: cell-based; settings: read-out: CMI
Description: as §1

Bacillus substilis [4] = assay: bacteriostatic activity (MIC); format: cell-based; settings: read-out: CMI
Description: as §1

[5] = system: Streptococcus (souche 1178); assay: bacteriostatic activity (MIC); format: cell-based; settings: read-out: CMI
Description: as §1

[6] = system: Staphylococcus aureus (souche 634); assay: bacteriostatic activity (MIC); format: cell-based; settings: read-out: CMI
Description: as §1

[7] = system: Escherichia coli (souche 548); assay: bacteriostatic activity (MIC); format: cell-based; settings: read-out: CMI
Description: as §1

[8] = system: Klebsiella pneumoniae (souche 433); assay: bacteriostatic activity (MIC); format: cell-based; settings: read-out: CMI
Description: as §1

iléon isolé de cobaye = assay: antianaphylactic activity in vitro: albumin-induced contraction of ileum from sensitised animals; format: cell-based; settings: for amplitude des contractions: 2 min contact, 200 µg albumin, controls 147 ± 32
Description: Des cobayes mâles sont sensibilises par une injection i.p. de 100 mg/kg d'ovalbumine dans un volume égal d'adjuvant de Freund. Quatre semaines après, les animaux sont sacrifiés, on recueille chaque iléon qui est placé à 33°C dans un bain de Thyrode. Une contraction est provoquée par addition d'une dose de 200 µg d'albumine au liquide de survie. L'amplitude des contractions des témoins est comparée à l'amplitude des contractions après mise en contact du produit de l'exemple 4 pendant 2 mn. Les résultats donnés dans le tableau III montrent que le produit de l'exemple 4 réduit l'amplitude des contractions de l'iléon isolé de cobaye , cette réduction étant statistiquement significative.

acute toxicity (LD50) = assay: acute toxicity (LD50); parameters: species or system souris; settings: in vivo, mouse
Description: Les DL-50 du poids de l'exemple 4 chez la souris sont les suivantes : • DL-50 i.p. = 18 ± 3 mg/kg • DL-50 i.v. - 20 ± 3 mg/kg • DL-50 p.o. = 282 ± 3 mg/kg • DL-50 s.c. > 1000 mg/kg • DL-50 aérosol = 22 ± 3 mg/kg

cobayes [9] = assay: antianaphylactic activity: ovalbumin aerosol in sensitised animals (time to dyspnoea); format: in vivo; settings: aerosol pretreatment, controls 94 ± 39
Excerpt: Des cobayes (mâles ou femelles) sont sensibilisés à l'ovalbumine quatre semaines avant le début de l'expérience. Chaque animal est exposé à un aérosol d'ovalbumine (obtenu à partir d'un milieu aqueux contenant 50 g/1 d'ovalbumine). Le choc anaphylactique se manifeste par l'apparition d'une dyspnée intense. Les temps d'apparition de la dyspnée sont comparés entre lot témoin et lots préalablement traités avec un aérosol du produit de l'exemple 4 (50 g/1 dans une solution eau-éthanol). Les résultats donnés dans le tableau IV, montrent que le produit de l'exemple 4 […] le temps d'apparition des troubles respiratoires provoqués par l'aérosol d'ovalbumine .

rat femelle = assay: anti-inflammatory activity, carrageenin oedema test; format: in vivo
Excerpt: L'activité anti-inflammatoire de l'exemple 4 a été étudiée chez le rat femelle (de poids 100 g) selon le test de l'oedème à la carragéenine.Les résultats sont donnés dans le tableau IV où l'Indométacine est utilisée comme produit de référence : […]

[10] = system: Salmonella typhi murium (souche I.P.); assay: bactericidal activity (MBC) on solid medium; format: cell-based; settings: Salmonella enterica, less than 0,01% of germs survive, read-out: CMB (concentration minimalebactéricide)
Description: as §1

[11] = system: Staphylococcus aureus Londres; assay: bactericidal activity (MBC) on solid medium; format: cell-based; settings: less than 0,01% of germs survive, read-out: CMB (concentration minimalebactéricide)
Description: as §1

[12] = system: Proteus vulgaris (souche 1557); assay: bactericidal activity (MBC) on solid medium; format: cell-based; settings: less than 0,01% of germs survive, read-out: CMB (concentration minimalebactéricide)
Description: as §1

Bacillus substilis [13] = assay: bactericidal activity (MBC) on solid medium; format: cell-based; settings: less than 0,01% of germs survive, read-out: CMB (concentration minimalebactéricide)
Description: as §1

[14] = system: Streptococcus (souche 1178); assay: bactericidal activity (MBC) on solid medium; format: cell-based; settings: less than 0,01% of germs survive, read-out: CMB (concentration minimalebactéricide)
Description: as §1

[15] = system: Staphylococcus aureus (souche 634); assay: bactericidal activity (MBC) on solid medium; format: cell-based; settings: less than 0,01% of germs survive, read-out: CMB (concentration minimalebactéricide)
Description: as §1

[16] = system: Escherichia coli (souche 548); assay: bactericidal activity (MBC) on solid medium; format: cell-based; settings: less than 0,01% of germs survive, read-out: CMB (concentration minimalebactéricide)
Description: as §1

[17] = system: Klebsiella pneumoniae (souche 433); assay: bactericidal activity (MBC) on solid medium; format: cell-based; settings: less than 0,01% of germs survive, read-out: CMB (concentration minimalebactéricide)
Description: as §1

duodénum isolé de rat [18] = assay: antispasmodic activity on isolated duodenum against acetylcholine; format: cell-based; settings: against acetylcholine (0,2 µg/ml), read-out: DE-50 (the source's name)
Description: (§2) L'activité antispasmodique du produit de l'exemple 4 a été étudiée sur le duodénum isolé de rat vis à vis de l'acétvlcholine et du chlorure de baryum. Les DE-50 du produit de l'exemple 4 sont : • (i) 13 µg/ml vis à vis de l'acétycholine (0,2 µg/ml), et • (ii) 10 µg/ml vis à vis de BaCl2 (0,3 µg/ml). g/ toxicité

duodénum isolé de rat [19] = assay: antispasmodic activity on isolated duodenum against barium chloride; format: cell-based; settings: against BaCl2 (0,3 µg/ml), read-out: DE-50 (the source's name)
Description: as §2

C=C(C=O)C1CCC(C)C1C=O (stereo not drawn) [Ex. 4, α-(2-formyl-3-méthyl-cyclopentyl)-acrylaldéhyde]
Apparition de l'apnée (en secondes) (cobayes [1]; 1 mg/kg): 130 ± 23 secondes
Apparition de l'apnée (en secondes) (cobayes [1]; 10 mg/kg): 169 ± 32 secondes
MIC [2]: 1000 µg/mL (≈ 6.02 mM)
MIC [3]: 1750 µg/mL (≈ 10.5 mM)
MIC (Bacillus substilis [4]): 1250 µg/mL (≈ 7.52 mM)
MIC [5]: 1250 µg/mL (≈ 7.52 mM)
MIC [6]: 1500 µg/mL (≈ 9.02 mM)
MIC [7]: 1000 µg/mL (≈ 6.02 mM)
MIC [8]: 2500 µg/mL (≈ 15 mM)
amplitude des contractions (iléon isolé de cobaye; 5 µg/ml): 91 ± 37
amplitude des contractions (iléon isolé de cobaye; 10 µg/ml): 52 ± 16
inhibition at 5 µg/mL (iléon isolé de cobaye; Cavia porcellus, 2 min, 5 µg/ml, read-out: variation de l'amplitude par rapport aux animaux témoins): 38%
inhibition at 10 µg/mL (iléon isolé de cobaye; Cavia porcellus, 2 min, 10 µg/ml, read-out: variation de l'amplitude par rapport aux animaux témoins): 65%
LD50 (acute toxicity (LD50); inhaled or intranasal, aerosol, read-out: DL-50 aérosol): 22 ± 3 mg/kg
LD50 (acute toxicity (LD50); ip, i.p., read-out: DL-50 i.p.): 18 ± 3 mg/kg
LD50 (acute toxicity (LD50); iv, i.v., read-out: DL-50 i.v.): 20 ± 3 mg/kg
LD50 (acute toxicity (LD50); po, p.o., read-out: DL-50 p.o.): 282 ± 3 mg/kg
LD50 (acute toxicity (LD50); sc, s.c., read-out: DL-50 s.c.): > 1000 mg/kg
Dyspnée temps d'apparition (secondes) (cobayes [9]; 1 mg/kg): 120 ± 52 secondes
Dyspnée temps d'apparition (secondes) (cobayes [9]; 10 mg/kg): 130 ± 54 secondes
inhibition par rapport aux témoins (rat femelle; dose 10 µg per rat): 26%
inhibition par rapport aux témoins (rat femelle; dose 50 µg per rat): 25%
inhibition par rapport aux témoins (rat femelle; dose 200 µg per rat): 41%
MBC [10]: 1250 µg/mL (≈ 7.52 mM)
MBC [11]: 1750 µg/mL (≈ 10.5 mM)
MBC [12]: 2000 µg/mL (≈ 12 mM)
MBC (Bacillus substilis [13]): 2500 µg/mL (≈ 15 mM)
MBC [14]: 2000 µg/mL (≈ 12 mM)
MBC [15]: 1750 µg/mL (≈ 10.5 mM)
MBC [16]: 1500 µg/mL (≈ 9.02 mM)
MBC [17]: 3000 µg/mL (≈ 18 mM)
EC50 (duodénum isolé de rat [18]): 13 µg/mL (≈ 0.0782 mM)
EC50 (duodénum isolé de rat [19]): 10 µg/mL (≈ 0.0602 mM)
